Test results from EP0425235B1, “Cytotoxic agents comprising maytansinoids and their therapeutic use” (IMMUNOGEN INC, priority 1989, dated 1991).
Like-named read-outs stand apart in the source and are kept apart here.

Columns and labels:
[1] = test system: KB (human epidermoid carcinoma); experiment: In vitro cytotoxicity, clonogenic assay (plating efficiency); type: cell-based; conditions: for fold more toxic than maytansine: KB and SKBR3 cells, ratio of IC50 values; for times less toxic than L counterpart: D-aminoacyl isomer vs L counterpart (6c, 6e), all three cell lines (KB, SKBR3, Namalwa)
Excerpt: (§1) Cytotoxicity of the maytansinoids and their antibody conjugates to non-adherent cell lines such as Namalwa and HL-60 can be measured by back-extrapolation of cell proliferation curves as described in Goldmacher et al, 135 J. Immunol. 3648-3651 (1985). Cytotoxicity of these compounds to adherent cell lines such as SKBR3 and KB can be determined by clonogenic assays as described in Goldmacher et al, 102 J. Cell Biol. 1312-1319 (1986).
(§2) The disulfide-containing maytansinoid drugs of the invention were evaluated for their ability to suppress proliferation of various human tumor cell lines in vitro. Two adherent cell lines KB (human epidermoid carcinoma) and SKBR3 (human breast tumor) and the non-adherent cell line, Namalwa (Burkitt's lymphoma) were used for the assessment of cytotoxicity of these compounds. Cells were exposed to the compounds for 24 hours and the surviving fractions of cells were measured in direct assays.
(§3) Cells of the human promyelocytic leukemia cell line, HL-60 (ATCC CCL 240) and the Burkitt's lymphoma cell line Namalwa (ATCC CRL 1432) were grown as suspension cultures in RPMI-1640 medium supplemented with 10% fetal calf serum and 2 mM L-glutamine. All other cell lines described below were grown as adherent cultures. Human epidermoid carcinoma cell line, KB (ATCC CCL 17), human renal carcinoma cell line A498 (ATCC HTB 44), human colon adenocarcinoma cell lines SW620 (ATCC CCL 227) and HT-29 (ATCC HTB 38) were grown in RPMI-1640 medium supplemented with 10% fetal calf serum and 2 mM L-glutamine. Human breast carcinoma SKBR3 cells (ATCC HTB 30) were grown in DMEM supplemented with 15% fetal calf serum containing 2 mM glutamine and the human ovarian adenocarcinoma cell line OVCAR3 (ATCC HTB 161) was grown in RPMI-1640 medium supplemented with 10% fetal calf serum containing 10 µg/ml insulin and 2 mM L-glutamine.
(§4) Cytotoxicity assays were performed in the respective media described above. The cytotoxicity of the maytansinoids and their antibody conjugates to HL-60 and Namalwa cells was measured by back-extrapolation of cell proliferation curves. Cytotoxicity of these compounds to the rest of the cell lines was determined using a clonogenic assay as previously described.

[2] = test system: SKBR3 (human breast tumor); experiment: as above; type: cell-based
Excerpt: as §1
as §2, with “Cells were exposed to the compounds for 24 hours and the surviving fractions of cells were measured in direct assays.” left out
as §3, §4

[3] = test system: Namalwa (Burkitt's lymphoma); experiment: In vitro cytotoxicity, growth back-extrapolation; type: cell-based, human
Excerpt: as §1, §2, §3, §4

[4] = test system: SW620 (Colon adenocarcinoma); experiment: In vitro cytotoxicity, clonogenic assay; type: cell-based, human; conditions: for IC50: Homo sapiens, read-out: IC50(24hr.exposure)
Protocol: as §3, §4

A498 (Renal carcinoma) = experiment: In vitro cytotoxicity, clonogenic assay; type: cell-based, human; conditions: for IC50: Homo sapiens, A498, 24hr exposure
Protocol: (§5) Since the methyldithio-maytansinoids are even more toxic than maytansine to solid tumor cell lines like KB and SKBR3, a wider panel of solid tumor cell lines was tested in a manner analogous to that described above to see whether this was a general phenomenon.
as §3, §4

[5] = test system: Ovcar3 (Ovarian carcinoma); experiment: In vitro cytotoxicity, clonogenic assay; conditions: for IC50: Homo sapiens, OVCAR-3, 24 h, read-out: IC50(24hr.exposure)
Protocol: as §3, §4

[6] = test system: HL60(Promyelocytic leukemia); experiment: In vitro cytotoxicity, back-extrapolation of cell proliferation curves; type: cell-based; conditions: Homo sapiens, HL-60; HL60, 24hr exposure
Protocol: as §5
as §3, with “Human breast carcinoma SKBR3 cells (ATCC HTB 30) were grown in DMEM supplemented with 15% fetal calf serum containing 2 mM glutamine and the human ovarian adenocarcinoma cell line OVCAR3 (ATCC HTB 161) was grown in RPMI-1640 medium supplemented with 10% fetal calf serum containing 10 µg/ml insulin and 2 mM L-glutamine.” left out
as §4

L1210 cells = L1210 cells in vitro; cited from earlier work
[7] = test system: P388, L1210, and LY5178 murine leukemic cell suspensions; conditions: P388, L1210 and LY5178, P388 most sensitive; cited from earlier work
[8] = test system: human acute lymphoblastic leukemia line C.E.M.; conditions: cited from earlier work
[9] = test system: P388 lymphocytic leukemia system; conditions: cited from earlier work
[10] = Homo sapiens, 24 h, NAMALWA, 24 hour exposure, read-out: IC50
[11] = Homo sapiens, 24 h, Namalwa, 24hr exposure (Table 2), read-out: IC50(24hr.exposure)
[12] = Homo sapiens, 24 h, KB, 24 hour exposure
[13] = Homo sapiens, SK-BR-3, 24 h, SKBR3, 24 hour exposure

COc1cc2cc(c1Cl)N(C)C(=O)C[C@H](OC(=O)[C@H](C)N(C)C(C)=O)[C@]1(C)O[C@H]1[C@H](C)[C@@H]1C[C@@](O)(NC(=O)O1)[C@H](OC)/C=C/C=C(\C)C2 [Compound 1a, maytansine, reference compound]
IC50 ([1]; Homo sapiens, 24 h, KB, 24 hour exposure, read-out: IC50): 30 pM
IC50 ([1]; Homo sapiens, 24 h, KB, 24hr exposure (Table 2), read-out: IC50(24hr.exposure)): 34 pM
IC50 ([2]; Homo sapiens, SK-BR-3, 24 h, SKBR3, 24 hour exposure, read-out: IC50): 100 pM
IC50 ([2]; Homo sapiens, SK-BR-3, 24 h, SKBR3, 24hr exposure (Table 2), read-out: IC50(24hr.exposure)): 110 pM
IC50 [3, 10]: 400 pM
IC50 [3, 11]: 400 pM
IC50 ([4]; SW-620, SW620, 24hr exposure): > 100 pM
surviving fraction ([4]; SW620, at 1x10^-10 M): 100%
surviving fraction (A498 (Renal carcinoma); A498, at 1x10^-10 M): 100%
IC50 (A498 (Renal carcinoma)): > 100 pM
IC50 [5]: 100 pM
IC50 [6]: 500 pM
cells accumulating in mitosis (L1210 cells): 67%
inhibited at doses of [7]: 10^-3 to 10^-7 microgram/ml
inhibited by concentrations as low as [8]: 10^-7 microgram/ml
dosage range over which tumor growth was inhibited [9]: 50- to 100 fold

COc1cc2cc(c1Cl)N(C)C(=O)C[C@H](OC(=O)[C@H](C)N(C)C(=O)CCSSC)[C@]1(C)O[C@H]1[C@H](C)[C@@H]1C[C@@](O)(NC(=O)O1)[C@H](OC)/C=C/C=C(\C)C2 [Compound 6b]
IC50 [1, 12]: ≤ 10 pM
IC50 ([1]; Homo sapiens, 24 h, read-out: IC50(24hr.exposure), KB, 24hr exposure (Table 2)): 11 pM
fold more toxic than maytansine [1]: 3-10 fold
IC50 [2, 13]: ≤ 10 pM
IC50 ([2]; SKBR3, 24 hour exposure): 11 pM
IC50 ([2]; SKBR3, 72hr exposure): 1x10^-13 Molar
IC50 [3, 11]: 6000 pM
IC50 ([4]; SW-620, 24 h): 40 pM
IC50 (A498 (Renal carcinoma)): 100 pM
IC50 [5]: 50 pM
cytotoxicity relative to maytansine ([5]; OVCAR3): twice as cytotoxic
IC50 [6]: 800 pM

COc1cc2cc(c1Cl)N(C)C(=O)C[C@H](OC(=O)[C@H](C)N(C)C(=O)CCCSSC)[C@]1(C)O[C@H]1[C@H](C)[C@@H]1C[C@@](O)(NC(=O)O1)[C@H](OC)/C=C/C=C(\C)C2 [Compound 6c]
IC50 [1, 12]: ≤ 10 pM
fold more toxic than maytansine [1]: 3-10 fold
IC50 ([1]; KB, 24 hour exposure): 8.5 pM
IC50 [3, 10]: ≥ 3000 pM
IC50 ([3]; NAMALWA, 24 hour exposure, read-out: IC50): 3200 pM

COc1cc2cc(c1Cl)N(C)C(=O)C[C@H](OC(=O)[C@@H](C)N(C)C(=O)CCCSSC)[C@]1(C)O[C@H]1[C@H](C)[C@@H]1C[C@@](O)(NC(=O)O1)[C@H](OC)/C=C/C=C(\C)C2 [Compound 6d]
times less toxic than L counterpart [1]: ≥ 20 times
IC50 [1, 12]: 190 pM
IC50 [3, 10]: 13000 pM

COc1cc2cc(c1Cl)N(C)C(=O)C[C@H](OC(=O)[C@H](C)N(C)C(=O)CCSSc1ccccc1)[C@]1(C)O[C@H]1[C@H](C)[C@@H]1C[C@@](O)(NC(=O)O1)[C@H](OC)/C=C/C=C(\C)C2 [Compound 6e]
IC50 [1, 12]: 100 pM
IC50 [3, 10]: 600 pM

COc1cc2cc(c1Cl)N(C)C(=O)C[C@H](OC(=O)[C@@H](C)N(C)C(=O)CCSSc1ccccc1)[C@]1(C)O[C@H]1[C@H](C)[C@@H]1C[C@@](O)(NC(=O)O1)[C@H](OC)/C=C/C=C(\C)C2 [Compound 6f]
times less toxic than L counterpart [1]: ≥ 20 times
IC50 [1, 12]: 2000 pM
IC50 [3, 10]: 8000 pM

COc1cc2cc(c1Cl)N(C)C(=O)C[C@H](OC(=O)[C@H](C)N(C)C(=O)CCS)[C@]1(C)O[C@H]1[C@H](C)[C@@H]1C[C@@](O)(NC(=O)O1)[C@H](OC)/C=C/C=C(\C)C2 [Compound 7b]
IC50 [1, 12]: 600 pM
IC50 [2, 13]: < 10 pM
IC50 [3, 10]: 10000 pM
